Assay [1] concerns the target T1, biotinylated wild-type menin and MLL-AF9 fusion protein (menin/MLL binding) (Homo sapiens, UniProt O00255).
T1 construct: made in house; host or cells: menin: E. coli; MLL-AF9-FLAG: HEK293 cells, used as cleared lysate
T1 sequence (O00255 1-610): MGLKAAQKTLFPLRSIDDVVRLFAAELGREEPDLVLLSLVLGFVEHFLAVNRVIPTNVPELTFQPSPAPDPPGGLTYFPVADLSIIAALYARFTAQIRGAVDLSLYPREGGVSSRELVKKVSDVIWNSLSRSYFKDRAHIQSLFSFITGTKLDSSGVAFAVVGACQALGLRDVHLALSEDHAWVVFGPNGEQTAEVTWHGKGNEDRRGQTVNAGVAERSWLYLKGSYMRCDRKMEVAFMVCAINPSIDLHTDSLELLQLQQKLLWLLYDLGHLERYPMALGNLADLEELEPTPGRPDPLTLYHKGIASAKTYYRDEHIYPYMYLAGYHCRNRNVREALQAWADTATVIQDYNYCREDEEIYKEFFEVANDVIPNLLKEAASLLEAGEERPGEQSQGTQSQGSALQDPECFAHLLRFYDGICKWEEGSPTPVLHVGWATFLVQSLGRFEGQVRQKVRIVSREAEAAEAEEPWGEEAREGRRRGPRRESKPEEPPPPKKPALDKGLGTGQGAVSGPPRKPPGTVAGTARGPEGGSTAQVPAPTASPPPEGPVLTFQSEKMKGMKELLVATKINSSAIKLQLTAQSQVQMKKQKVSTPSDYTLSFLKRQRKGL
Description: Assay 1: menin/MLL binding AlphaLISA assay, wild-type menin. To be noted: Table 30; column head does not say wild-type or mutated menin. The method in brief:
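Compound was preincubated 30 min at room temperature with biotinylated menin (5 nM) and MLL-AF9-FLAG lysate from HEK293 cells, pH 7.4 buffer with 5% DMSO and DTT. Bead-based Alpha signal after 60 min with streptavidin donor and anti-FLAG acceptor beads; four-parameter logistic fit gave IC50.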
A general note: In Alpha technology, singlet oxygen from a donor bead excites a nearby acceptor bead.

The test system of assay [2] is human acute monocytic leukemia cell line MV-4-11. Description: Assay 2: cell proliferation assay (ATP quantitation, CellTiter-Glo), MV-4-11. To be noted: Homo sapiens, MV4-11, 72 h, MV-4-11 cells. The format is cell-based. The method in brief:
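MV-4-11 cells, 1.67×10^4 per well in medium with 10% FBS, were exposed to compound for 72 h at 37° C., 5% CO2; HL-60 cells served as toxicity control. Proliferation read as ATP content by CellTiter-Glo luminescence.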
In general terms: Cellular ATP, detected with luciferase, serves as a proxy for viable cell number.

A word on the IC50: it is the midpoint of a concentration-inhibition curve. A word on the EC50: it is the concentration at which the effect is half-maximal. A low value points to greater potency. In turn, `CCN(C(=O)C(C)C)c1cc(F)ccc1Oc1cncnc1N1CC2(CCN(CC(C)C)C2)C1` [Example 136, N-ethyl-N-(5-fluoro-2-((4-(6-isobutyl-2,6-diazaspiro[3.4]octan-2-yl)pyrimidin-5-yl)oxy)phenyl)iso-butyramide] gave an IC50 in assay [1] below 100 nM. Besides, the EC50 in assay [2] lay within 100 to 1000 nM.
For `N#Cc1ccc(-c2cc(F)ccc2Oc2cncnc2N2CCC3(CCC(N)(Cc4ccccc4)C3)C2)c(C2CC2)c1` (single isomer, unassigned) [Example 250B, 2′-((4-(7-amino-7-benzyl-2-azaspiro[4.4]nonan-2-yl)pyrimidin-5-yl)oxy)-2-cyclopropyl-5′-fluoro-[1,1′-biphenyl]-4-carbonitrile], in that order: below 100 nM and at least 1000 nM.
For `CCN(CC)C(=O)c1cc(F)ccc1Oc1cncnc1N1CCC2(CCN(Cc3ccc4[nH]c(=O)[nH]c4c3)C2)C1` (centres unmarked) [Example 173, N,N-diethyl-5-fluoro-2-((4-(7-((2-oxo-2,3-dihydro-1H-benzo[d]imidazol-5-yl)methyl)-2,7-diazaspiro[4.4]nonan-2-yl)pyrimidin-5-yl)oxy)benzamide], in that order: below 100 nM and 100 to 1000 nM.
As to `CC(C)c1ncncc1-c1cc(F)ccc1Oc1cncnc1N1CC2(CN(CC3CCC(O)CC3)C2)C1` (centres unmarked) [Example 65, 4-((6-(5-(4-fluoro-2-(4-isopropylpyrimidin-5-yl)phenoxy)pyrimidin-4-yl)-2,6-diazaspiro[3.3]heptan-2-yl)methyl)cyclohexanol], in assay [1], the IC50 was below 100 nM. In assay [2], this molecule yielded a concentration for a half-maximal effect (EC50) of 100 to 1000 nM.
Take `CC(C)N(C)C(=O)c1cc(F)ccc1Oc1cncnc1N1CCC2(CN(C(=O)Cc3ccc(C#N)cc3)C2)C1` [Example 127, 2-((4-(2-(2-(4-cyanophenyl)acetyl)-2,6-diazaspiro[3.4]octan-6-yl)pyrimidin-5-yl)oxy)-5-fluoro-N-isopropyl-N-methylbenzamide]: the 50% inhibitory concentration (IC50) in assay [1] was below 100 nM. Further, the EC50 in assay [2] lay in the range of 100 to 1000 nM.
Taken in the same sequence, the figures for `CN(C(=O)c1cc(F)ccc1Oc1cncnc1N1CCC2(CCN(Cc3ccc4[nH]c(=O)[nH]c4c3)C2)C1)c1ccccc1` (centres unmarked) [Example 166, 5-fluoro-N-methyl-2-((4-(7-((2-oxo-2,3-dihydro-1H-benzo[d]imidazol-5-yl)methyl)-2,7-diazaspiro[4.4]nonan-2-yl)pyrimidin-5-yl)oxy)-N-phenylbenzamide] were below 100 nM and 100 to 1000 nM.
For `CC(C)c1ccccc1-c1cc(F)ccc1Oc1cncnc1N1CC2(CN(C(=O)Cc3ccc(C#N)cc3)C2)C1` [Example 228, 4-(2-(6-(5-((5-fluoro-2′-isopropyl-[1,1′-biphenyl]-2-yl)oxy)pyrimidin-4-yl)-2,6-diazaspiro[3.3]heptan-2-yl)-2-oxoethyl)benzonitrile], in that order: below 100 nM and 100 to 1000 nM.
Turning to `CC(C)c1ncncc1-c1cc(F)ccc1Oc1cncnc1N1CC2(CC(NCC3CCC(C)(C#N)CC3)C2)C1` (centres unmarked) [Example 140, 4-(((2-(5-(4-fluoro-2-(4-isopropylpyrimidin-5-yl)phenoxy)pyrimidin-4-yl)-2-azaspiro[3.3]heptan-6-yl)amino)methyl)-1-methylcyclohexane-1-carbonitrile], the concentration for half-maximal inhibition (IC50) in assay [1] was below 100 nM. Moreover, the EC50 in assay [2] is 100 to 1000 nM.
Taken in the same sequence, the figures for `Cc1c(C#N)cccc1-c1cc(F)ccc1Oc1cncnc1N1CCC2(CCN(Cc3ccc4[nH]c(=O)[nH]c4c3)C2)C1` (centres unmarked) [Example 230, 5′-fluoro-2-methyl-2′-((4-(7-((2-oxo-2,3-dihydro-1H-benzo[d]imidazol-5-yl)methyl)-2,7-diazaspiro[4.4]nonan-2-yl)pyrimidin-5-yl)oxy)-[1,1′-biphenyl]-3-carbonitrile] were below 100 nM and 100 to 1000 nM.
Consider `CC(=O)Nc1ccc(CN2CCC3(CCN(c4ncncc4Oc4ccc(F)cc4-c4ccccc4C(C)C)C3)C2)cc1` (centres unmarked) [Example 221, N-(4-((7-(5-((5-fluoro-2′-isopropyl-[1,1′-biphenyl]-2-yl)oxy)pyrimidin-4-yl)-2,7-diazaspiro[4.4]nonan-2-yl)methyl)phenyl) acetamide], for which the IC50 in assay [1] was below 100 nM. This molecule also returned an EC50 in assay [2] of 100 to 1000 nM.

(Values after patent US12312359B2 (Vitae Pharmaceuticals, LLC, priority 2016, dated 2025).)
